Patent publication US20240174690A1, “ANNULATED 2-AMINO-3-CYANO THIOPHENES AND DERIVATIVES FOR THE TREATMENT OF CANCER” (BOEHRINGER INGELHEIM INTERNATIONAL GMBH, priority 2021, published 2024)

Experiments:
[1] = molecular target: KRAS (G12D)::SOS1 (Homo sapiens (Human), UniProt P01116, G12D); assay: KRAS::SOS1 AlphaScreen binding assay, KRAS G12D
Outline: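 KRAS 1-169 (biotinylated avi-tag) with GST-SOS1 564-1049 and 10 µM GDP in PBS/0.1% BSA/0.05% Tween 20: WT and G13D 10 nM each with 10 nM SOS1; G12D 10 nM and G12C 7.5 nM with 5 nM SOS1. After 30 min, glutathione acceptor/streptavidin donor beads were added for 60 min at RT in the dark, then AlphaScreen read; 4-parameter IC50.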

[2] = Caco-2 assay (permeability PappAB, PappBA, efflux ratio); type: in vitro ADME; details: human, Caco-2, 10 μM test compound, pH 7.4; for Papp A→B at 90 min, 10 μM: apical to basolateral; for efflux ratio at 90 min, 10 μM: efflux ratio PappBA/PappAB, read-out: Caco ER
Outline: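 Confluent Caco-2 monolayers on filter supports, 0.25% BSA in both donor and receiver buffer; transport measured a-b and b-a. After 25-30 min preincubation at 37 °C, samples at 0, 30, 60, 90 min quantified by HPLC/MS/MS. Papp from receiver amount per time, filter area and initial donor concentration; efflux ratio = PappBA/PappAB.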

[3] = tested on: SAS cells; assay: SAS CTG proliferation assay (120 h) (HNSCC, wt amplified); type: cell-based
Outline: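 SAS cells plated at 300 per well in DMEM:F12 with 10% FCS and left overnight, then given compounds acoustically. After 120 h exposure, viability read by CellTiter-Glo as percent of DMSO control. IC50 from four-parameter non-linear regression.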

KRAS (G12D)::SOS1, sequence (P01116 other isoform, or with tags, fused parts or gaps G12D): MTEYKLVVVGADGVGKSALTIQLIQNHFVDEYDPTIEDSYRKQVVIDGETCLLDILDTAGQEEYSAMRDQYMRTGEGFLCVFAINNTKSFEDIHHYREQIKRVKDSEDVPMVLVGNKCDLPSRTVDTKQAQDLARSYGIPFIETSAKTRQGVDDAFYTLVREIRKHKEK

Row | SMILES | IC50 [1] | Papp A→B at 90 min, 10 μM [2] | efflux ratio at 90 min, 10 μM [2] | IC50 [3]
1 | CO[C@@H]1C[C@@H]([C@H](C)Oc2cc(-c3cnn(C)n3)nc(-c3onc4c3CCC[C@@]43CCCc4sc(N)c(C#N)c43)n2)N(C)C1 [I-17] | 15 nM |  |  | 241 nM
2 | C[C@H](Oc1cc(N2Cc3cnn(C)c3C2)nc(-c2onc3c2CCC[C@@]32CCCc3sc(N)c(C#N)c32)n1)[C@@H]1CCCN1C [I-19] | 12 nM |  |  | 217 nM
3 | C[C@H](Oc1cc(-n2cc(-c3cncs3)nn2)nc(-c2noc3c2CCC[C@@]32CCCc3sc(N)c(C#N)c32)n1)[C@@H]1CCCN1C [II-125] | 6 nM |  | 1.3 | 182 nM
4 | C[C@H](Oc1cc(-n2cnc(C(=O)N(C)C)c2)nc(-c2noc3c2CCC[C@@]32CCCc3sc(N)c(C#N)c32)n1)[C@@H]1CCCN1C [II-126] | 7 nM | 2 ×10⁻⁶ cm/s | 11 | 189 nM
5 | C[C@H](Oc1cc(-c2ccn([C@H]3CCOC3)n2)nc(-c2noc3c2CCC[C@@]32CCCc3sc(N)c(C#N)c32)n1)[C@@H]1CCCN1C [II-127] | 3 nM | 5.9 ×10⁻⁶ cm/s | 4.1 | 18 nM
6 | C[C@H](Oc1cc(-c2ccn(Cc3ncco3)n2)nc(-c2noc3c2CCC[C@@]32CCCc3sc(N)c(C#N)c32)n1)[C@@H]1CCCN1C [II-128] | 2 nM |  |  | 46 nM
7 | C[C@H](Oc1cc(-n2nccc2-c2ccncc2)nc(-c2noc3c2CCC[C@@]32CCCc3sc(N)c(C#N)c32)n1)[C@@H]1CCCN1C [II-131] | 6 nM |  | 0.9 | 623 nM
8 | C[C@H](Oc1cc(-c2cccc(C(N)=O)c2)nc(-c2noc3c2CCC[C@@]32CCCc3sc(N)c(C#N)c32)n1)[C@@H]1CCCN1C [II-133] | 6 nM |  |  | 202 nM
9 | C[C@H](O)Cn1ncc(-c2cc(O[C@@H](C)[C@@H]3CCCN3C)nc(-c3noc4c3CCC[C@@]43CCCc4sc(N)c(C#N)c43)n2)n1 [II-134] | 4 nM | 4 ×10⁻⁶ cm/s | 8 | 35 nM
10 | C[C@H]1CNCCCN1c1cc(-n2ccnc2)nc(-c2noc3c2CCC[C@@]32CCCc3sc(N)c(C#N)c32)n1 [II-142] | 25 nM |  |  | 6110 nM
11 | C[C@H](Oc1cc(-n2cc3c(n2)CNC3)nc(-c2noc3c2CCC[C@@]32CCCc3sc(N)c(C#N)c32)n1)[C@@H]1C[C@@H](F)CN1C [II-154] | 1 nM |  |  | 747 nM
12 | COc1c(O[C@@H](C)[C@@H]2CCCN2C)nc(-c2noc3c2CCC[C@@]32CCCc3sc(N)c(C#N)c32)nc1-n1ccc(C(N)=O)n1 [II-159] | 6 nM |  |  | 70 nM
13 | C[C@H](Oc1cc(N2CC3COCC(C2)N3)nc(-c2noc3c2CCC[C@@]32CCCc3sc(N)c(C#N)c32)n1)[C@@H]1CCCN1C [II-160] | 2 nM |  |  | 821 nM
14 | C[C@H](Oc1cc([C@H]2CCNC2)nc(-c2noc3c2CCC[C@@]32CCCc3sc(N)c(C#N)c32)n1)[C@@H]1CCCN1C [II-163] | 1 nM |  |  | 274 nM
15 | CC(C)[C@@H]1CN(c2cc(O[C@@H](C)[C@@H]3CCCN3C)nc(-c3noc4c3CCC[C@@]43CCCc4sc(N)c(C#N)c43)n2)CCN1 [II-166] | 1 nM |  |  | 1180 nM
16 | CC(=O)N1CCN(c2cc(O[C@@H](C)[C@@H]3CCCN3C)nc(-c3noc4c3CCC[C@@]43CCCc4sc(N)c(C#N)c43)n2)CC12CC2 [II-178] | 2 nM |  |  | 2570 nM
17 | CO[C@H]1CCN(C)[C@@H]1[C@H](C)Oc1cc(-n2ccc(CC(=O)NC(C)C)n2)nc(-c2noc3c2CCC[C@@]32CCCc3sc(N)c(C#N)c32)n1 [II-183] | 1 nM |  |  | 6 nM
18 | CCN1CCN(c2cc(O[C@@H](C)[C@@H]3C[C@@H](F)CN3C)nc(-c3noc4c3CCC[C@@]43CCCc4sc(N)c(C#N)c43)n2)CC12CC2 [II-185] | 1 nM |  |  | 2420 nM
19 | C[C@H](Oc1cc(-n2ccc(C(=O)N[C@H]3CCOC3)n2)nc(-c2noc3c2CCC[C@@]32CCCc3sc(N)c(C#N)c32)n1)[C@@H]1CCCN1C [II-193] | 1 nM |  |  | 10 nM
20 | CO[C@H]1CCN(C)[C@@H]1[C@H](C)Oc1cc(-n2ccc(C(=O)N[C@@H]3CCOC3)n2)nc(-c2noc3c2CCC[C@@]32CCCc3sc(N)c(C#N)c32)n1 [II-197] | 1 nM |  |  | 8 nM
21 | CO[C@H]1CCN(C)[C@@H]1[C@H](C)Oc1cc(-n2ccc(C(=O)N(C)C3COC3)n2)nc(-c2noc3c2CCC[C@@]32CCCc3sc(N)c(C#N)c32)n1 [II-199] | 1 nM |  |  | 17 nM
22 | CNC1CCN(c2cc(O[C@@H](C)[C@@H]3CCCN3C)nc(-c3noc4c3CCC[C@@]43CCCc4sc(N)c(C#N)c43)n2)CC1 [II-214] | 1 nM |  |  | 

More lines, in order of falling IC50 [1], values ahead:

Row | IC50 [1] | Papp A→B at 90 min, 10 μM [2] | efflux ratio at 90 min, 10 μM [2] | SMILES | IC50 [3]
23 | 348 nM |  |  | C[C@H]1CNCCCN1c1nc(-c2onc3c2CCC[C@@]32CCCc3sc(N)c(C#N)c32)cc(C(F)(F)F)n1 [I-15] | 
24 | 22 nM |  |  | C[C@H]1CNCCCN1c1cc(-c2ccn(C)n2)nc(-c2noc3c2CCC[C@@]32CCCc3sc(N)c(C#N)c32)n1 [II-140] | 128 nM
25 | 8 nM |  |  | C[C@H](Oc1cc(-n2cc3ccn([C@@H](C)c4ccccn4)c(=O)c3n2)nc(-c2noc3c2CCC[C@@]32CCCc3sc(N)c(C#N)c32)n1)[C@@H]1CCCN1C [II-205] | 20 nM
26 | 3 nM |  | 0.8 | C[C@H](Oc1cc(-n2cncc3ccnc2-3)nc(-c2onc3c2CCC[C@@]32CCCc3sc(N)c(C#N)c32)n1)[C@@H]1CCCN1C [I-14] | 25 nM
27 | 3 nM | 17 ×10⁻⁶ cm/s | 1.2 | C[C@H](Oc1cc(-n2cncn2)nc(-c2onc3c2CCC[C@@]32CCCc3sc(N)c(C#N)c32)n1)[C@@H]1CCCN1C [I-18] | 72 nM
28 | 3 nM | 4.2 ×10⁻⁶ cm/s | 5.2 | C[C@H](Oc1cc(-c2ccn(C[C@H]3CCOC3)n2)nc(-c2noc3c2CCC[C@@]32CCCc3sc(N)c(C#N)c32)n1)[C@@H]1CCCN1C [II-129] | 18 nM
29 | 3 nM | 6.8 ×10⁻⁶ cm/s | 4.9 | C[C@H](Oc1cc(-n2cc(C(=O)N(C)C)nn2)nc(-c2noc3c2CCC[C@@]32CCCc3sc(N)c(C#N)c32)n1)[C@@H]1CCCN1C [II-132] | 319 nM
30 | 2 nM |  |  | C[C@H](Oc1cc(-c2cn(C)nn2)nc(-c2onc3c2CCC[C@@]32CCCc3sc(N)c(C#N)c32)n1)[C@@H]1CCCN1C [I-16] | 77 nM
31 | 2 nM |  | 1.4 | C[C@H](Oc1cc(-n2ccc(-c3cnccn3)n2)nc(-c2noc3c2CCC[C@@]32CCCc3sc(N)c(C#N)c32)n1)[C@@H]1CCCN1C [II-130] | 176 nM
32 | 2 nM |  | 7.9 | C[C@H](Oc1cc(-n2cc3c(n2)CCN(C)C3)nc(-c2noc3c2CCC[C@@]32CCCc3sc(N)c(C#N)c32)n1)[C@@H]1CCCN1C [II-141] | 873 nM
33 | 2 nM |  |  | C[C@H](Oc1nc(-c2noc3c2CCC[C@@]32CCCc3sc(N)c(C#N)c32)nc(N2CCN(C)C3(CC3)C2)c1Cl)[C@@H]1C[C@@H](F)CN1C [II-176] | 4940 nM
34 | 2 nM |  |  | C[C@H](Oc1cc(-n2cc3ccn([C@@H]4CCOC4)c(=O)c3n2)nc(-c2noc3c2CCC[C@@]32CCCc3sc(N)c(C#N)c32)n1)[C@@H]1CCCN1C [II-203] | 18 nM
35 | 2 nM |  |  | C[C@H](Oc1cc(-n2cc3ccn(C[C@H]4CCOC4)c(=O)c3n2)nc(-c2noc3c2CCC[C@@]32CCCc3sc(N)c(C#N)c32)n1)[C@@H]1CCCN1C [II-204] | 17 nM
36 | 1 nM | 0.5 ×10⁻⁶ cm/s | 70.2 | C[C@H](Oc1cc(N2CCNC[C@]23CCOC3)nc(-c2onc3c2CCC[C@@]32CCCc3sc(N)c(C#N)c32)n1)[C@@H]1CCCN1C [I-12] | 218 nM
37 | 1 nM | 0.4 ×10⁻⁶ cm/s | 49.8 | C[C@H](Oc1cc(N2CCNC[C@@]23CCOC3)nc(-c2onc3c2CCC[C@@]32CCCc3sc(N)c(C#N)c32)n1)[C@@H]1CCCN1C [I-13] | 294 nM
38 | 1 nM | 4.5 ×10⁻⁶ cm/s | 7.3 | C[C@H](Oc1cc(N2CCOC2=O)nc(-c2noc3c2CCC[C@@]32CCCc3sc(N)c(C#N)c32)n1)[C@@H]1CCCN1C [II-143] | 48 nM
39 | 1 nM |  |  | CO[C@H]1CCN(C)[C@@H]1[C@H](C)Oc1cc(-n2ccc(C(=O)N[C@@H](C)c3ccccn3)n2)nc(-c2noc3c2CCC[C@@]32CCCc3sc(N)c(C#N)c32)n1 [II-196] | 9 nM
40 | 1 nM |  |  | CO[C@H]1CCN(C)[C@@H]1[C@H](C)Oc1cc(-n2ccc(C(=O)N[C@H]3CCOC3)n2)nc(-c2noc3c2CCC[C@@]32CCCc3sc(N)c(C#N)c32)n1 [II-198] | 8 nM
41 | 1 nM |  |  | COCCNC(=O)c1ccn(-c2cc(O[C@@H](C)[C@@H]3[C@@H](OC)CCN3C)nc(-c3noc4c3CCC[C@@]43CCCc4sc(N)c(C#N)c43)n2)n1 [II-200] | 8 nM
42 | 1 nM |  |  | [2H]C([2H])([2H])N1C[C@H](F)C[C@H]1[C@H](C)Oc1cc(N2CCN(C([2H])([2H])[2H])C3(CC3)C2)nc(-c2noc3c2CCC[C@@]32CCCc3sc(N)c(C#N)c32)n1 [II-207] | 1080 nM
